Measurements: the SangsterLogP compilation

Structure (SMILES) | logP
Oc1ccc(Cl)c(Cl)c1 | 3.05
Cc1cc(C)c(C)c(C)c1 | 4.17
Cc1cc(C)cc(C)c1 | 3.84
Cc1cc(C)c(C)c(C)c1C | 4.56
Oc1cc(Cl)c(Cl)c(Cl)c1 | 3.75
Nc1cc(Cl)c(Cl)c(Cl)c1 | 3.32
Oc1cc(Cl)cc(Cl)c1 | 3.26
Nc1c(Cl)cccc1Cl | 2.71
ClC1=C(Cl)C2(Cl)C3C4CC(C5OC45)C3C1(Cl)C2(Cl)Cl (configuration not stated) | 5.11
Nc1c(Cl)c(Cl)c(Cl)c(Cl)c1Cl | 4.59
Cc1ccc(C)c(C)c1C | 4.11
Nc1ccc(Cl)c(Cl)c1Cl | 3.33
